In patent US20230331663A1, “SMALL MOLECULE NICOTINAMIDE ADENINE DINUCLEOTIDE MODULATORS” (THE CLEVELAND CLINIC FOUNDATION, priority 2020, published 2023):
“Also recorded” adds a separate entry of the source.

Tests used:
[1] = tested on: murine bone marrow cells from C57bl6 mice; experiment: Mouse HSPC self renewal, methyl cellulose colony re-plating; type: cell-based
Experimental: FIGS. 5A and 5B provide graphs showing Treatment of 1-17 to murine bone marrow expands the colony forming hematopoietic stem cells. The murine bone marrow cells from C57BL6 mice were grown in methyl cellulose in the presence and absence of the compound 1-17 and colony number were counted every week and re-plated. A. The number of colony and B. the total cellular output.
The murine bone marrow cells from C57bl6 mice were grown in methyl cellulose in the presence and absence of compound 1-17. Colony numbers were counted every week and re-plated.
FIG. 5 provides graphs showing that treatment with compound 1-17 increases mouse HSPC self-renewal. […] Additionally, as shown in FIG. 5B directed to total cellular output, cells also proliferate far longer than the vehicle control, maintaining population for an average of 1 to 2 passes after control.

[2] = tested on: Total Human bone marrow, isolated CD34+ HSPCs, LTC-IC; experiment: Stem cell function, total cellular output in culture; type: cell-based
Experimental: Total Human bone marrow A, isolated CD34+ HSPCs B, and long-term culture initiating hematopoietic cells (LTC-IC) C, were grown in the presence and absence of the compound 1-17 and the total cellular output was determined. Compound 1-17 is synergistic with NAD treatment.
Total Human bone marrow, isolated CD34+ HSPCs, and long-term culture initiating hematopoietic cells (LTC-lC), were grown in the presence and absence of compound 1-17 and the total cellular output was determined.

[3] = tested on: healthy murine bone marrow; experiment: Treatment of healthy mice, hematopoiesis; type: in vivo; details: 40 mg/kg
Experimental: The effects of CD38 inhibitor 1-17 and its analogues on hematopoiesis of healthy murine bone marrow were tested. […] Experiments were conducted to determine whether treatment with compound 1-17 has impact on blood counts and NAD+ levels in cells. The inventors treated 9 mice which were sacrificed at 2, 5 and 12 week and blood counts, marrow morphology and cellularity and bone marrow colony formation per 10^6 cell were determined in colony forming assays.

[4] = biological target: T1, recombinant human CD38 full length protein (Homo sapiens, UniProt P28907); experiment: β-NAD+ degradation assay (HPLC, C18); type: biochemical; details: purified full length wild type recombinant CD38 incubated with NAD+
T1 construct: The recombinant human CD38 full length protein UniProtKB - P28907 (CD38_HUMAN); His-tag (inferred from the pET28a vector and IMAC purification); made in house
T1 sequence (P28907 1-300): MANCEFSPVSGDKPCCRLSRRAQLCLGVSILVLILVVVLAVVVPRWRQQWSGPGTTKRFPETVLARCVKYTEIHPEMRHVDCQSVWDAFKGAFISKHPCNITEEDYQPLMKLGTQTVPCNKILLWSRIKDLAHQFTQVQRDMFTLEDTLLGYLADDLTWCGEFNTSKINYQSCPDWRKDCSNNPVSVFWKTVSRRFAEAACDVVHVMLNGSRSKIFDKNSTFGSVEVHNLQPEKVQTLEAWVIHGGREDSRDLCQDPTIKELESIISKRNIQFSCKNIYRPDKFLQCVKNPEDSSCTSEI
Experimental: FIGS. 3A-3D provides graphs showing Compound 1-17 inhibits CD38 and protects NAD degradation in vitro. Full length wild type recombinant CD38 was expressed and purified and incubated with NAD and high-performance liquid chromatographic assay using C18 were used to quantify NAD degradation. A. chromatogram with vehicle, B. CD38 incubation for 4 hours at room temperature C.
The recombinant human CD38 full length protein UniProtKB - P28907 (CD38_HUMAN) was cloned into pET28a and purified using IMAC column followed by gel filtration on SephacrylS200. The purified protein (10 µg/ml) was incubated with varying amount of NAD+ in assay buffer ([…], 5 mM MgCl2 at pH 7.0) at 25° C. for 3 hours, reaction was stopped by heat inactivation followed by acetone precipitation of protein the supernatant was vacuum dried and dissolved in water and loaded onto reverse phase C18 column and eluted with a gradient of 0-25% of acetonitrile in water.
Full length wild type recombinant CD38 was expressed and purified and incubated with NAD+ and high-performance liquid chromatographic assay using C18 were used to quantify NAD+ degradation.

[5] = tested on: Human bone marrow cells from healthy volunteers; experiment: Human HSPC self renewal, methyl cellulose colony re-plating; type: cell-based; details: colonies counted after eight days and re-plated until control HSPCs exhausted
Experimental: The human bone marrow cells from healthy volunteers were grown in methyl cellulose in the presence and absence of the compound 1-17 and colony number were counted after eight days in culture and re-plated till control HSPCs were completely exhausted. A. The number of colony and B. the total cellular output.
Human bone marrow cells from healthy volunteers were grown in methyl cellulose in the presence and absence of the compound 1-17 and colony number were counted after eight days in culture and re-plated till control HSPCs were completely exhausted.

[6] = tested on: undifferentiated normal human fibroblast (NHFB); experiment: Cell proliferation assay, fibroblast life span; type: cell-based
Experimental: FIGS. 4A and 4B provide graphs showing NAD protection by compound 1-17 extend life span of undifferentiated normal human fibroblast (NHFB) under in-vitro cell culture conditions. NHFB were either A. young (<8 doubling time) or B. old (>10 doublings) cell cultures were treated with indicated amount of 1-17 in complete growth media.
NHFB were either young (<8 doubling time) (FIG. 4A) or old (>10 doublings) (FIG. 4B). Cell cultures were treated with the indicated amount of 1-17 in complete growth media.

Row | Structure (SMILES) | self-renewal of HSPCs in colony numbers and overall cell counts ([1]; mouse bone marrow in methyl cellulose, counted every week and re-plated) | passes for which population is maintained after control ([1]; total cellular output, versus vehicle control) | combination with NAD treatment ([2]; cell culture, total cellular output) | long term hematopoietic stem cells, total cellular output ([2]; total human bone marrow, CD34+ HSPCs, LTC-IC in culture) | efficacy and tolerability of treatment dose [3] | inhibition of CD38 NAD+ degradation [4] | colony forming hematopoietic stem and progenitor cells (HSPCs) [5] | doubling time ([6]; NHFB treated with indicated amount of compound) | life span of NHFB in culture ([6]; young (<8 doubling time) or old (>10 doublings) NHFB, complete growth media)
1 | Cl.NCCc1ccc(O)c(C(=O)Nc2cccc3ccccc23)c1 [Compound 1-17, 5-(2-Aminoethyl)-2-hydroxy-N-(naphthalen-1-yl)benzamide] | markedly increased | 1 to 2 passes | synergies with NAD treatment | expands long term hematopoietic stem cells in cell culture | effective and well tolerated | inhibits CD38 and protects NAD+ degradation in vitro; also recorded: Dose dependent inhibition of CD38 | expands the colony forming hematopoietic stem and progenitor cells (HSPCs) | significantly increased in a dose dependent fashion | extends the life span
2 | O=C(Nc1cccc2cc(C(F)(F)F)ccc12)c1cc(CCCF)ccc1O [Compound 1-11] | – | – | – | – | – | – | expands the colony forming hematopoietic stem and progenitor cells (HSPCs) | – | –
